The compounds below were run against T1, purified human HDAC6 (Homo sapiens, UniProt Q9UBN7) (assay: HDAC6 Enzyme Assay). Conditions: bin: greater than 500 nM and less than 1 μM (lower bound in nM, upper bound in μM).
T1 construct: purchased BPS Bioscience 5006
T1 sequence (Q9UBN7 1-1215): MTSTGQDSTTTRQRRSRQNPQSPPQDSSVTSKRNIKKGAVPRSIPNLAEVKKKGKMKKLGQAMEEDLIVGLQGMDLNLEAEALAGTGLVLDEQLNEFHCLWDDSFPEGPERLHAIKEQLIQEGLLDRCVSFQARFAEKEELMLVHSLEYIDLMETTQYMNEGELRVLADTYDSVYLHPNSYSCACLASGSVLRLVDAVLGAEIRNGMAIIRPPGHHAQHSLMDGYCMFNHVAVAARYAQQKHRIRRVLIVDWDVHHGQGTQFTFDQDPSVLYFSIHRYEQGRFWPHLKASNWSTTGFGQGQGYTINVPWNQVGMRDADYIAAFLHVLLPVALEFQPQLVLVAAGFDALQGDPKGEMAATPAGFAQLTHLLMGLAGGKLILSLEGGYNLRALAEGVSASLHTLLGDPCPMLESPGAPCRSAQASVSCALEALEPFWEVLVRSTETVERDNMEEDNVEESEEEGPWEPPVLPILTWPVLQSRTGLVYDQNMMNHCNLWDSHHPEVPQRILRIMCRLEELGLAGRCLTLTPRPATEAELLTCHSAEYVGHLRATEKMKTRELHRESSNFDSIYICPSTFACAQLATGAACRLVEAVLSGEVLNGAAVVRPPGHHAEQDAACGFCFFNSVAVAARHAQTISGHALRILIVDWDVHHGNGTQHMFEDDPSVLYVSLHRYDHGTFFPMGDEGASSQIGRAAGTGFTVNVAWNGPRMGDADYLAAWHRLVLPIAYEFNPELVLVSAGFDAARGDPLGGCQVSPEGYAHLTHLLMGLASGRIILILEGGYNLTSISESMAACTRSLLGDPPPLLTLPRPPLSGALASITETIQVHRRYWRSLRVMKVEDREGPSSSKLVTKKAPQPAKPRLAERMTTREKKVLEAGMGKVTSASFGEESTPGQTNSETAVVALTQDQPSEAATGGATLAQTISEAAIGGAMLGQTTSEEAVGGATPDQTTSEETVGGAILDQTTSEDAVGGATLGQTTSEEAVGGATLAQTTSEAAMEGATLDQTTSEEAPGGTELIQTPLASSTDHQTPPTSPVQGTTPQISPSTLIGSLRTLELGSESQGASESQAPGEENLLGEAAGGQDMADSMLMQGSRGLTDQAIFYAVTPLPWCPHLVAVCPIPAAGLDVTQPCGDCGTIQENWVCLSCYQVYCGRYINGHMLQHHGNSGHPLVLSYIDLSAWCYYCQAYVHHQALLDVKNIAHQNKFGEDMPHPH
Assay type: biochemical
Method in brief: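 Purified human HDAC6 incubated 1 h at 30 °C with Ac-Arg-Gly-Lys(Ac)-AMC and compound; trichostatin A stop, trypsin release of AMC, fluorescence Ex 340/Em 460 nm. IC50 from concentration–response relative to DMSO.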

IC50 [nM] | SMILES
500 to 1000 | CC(NC(=O)c1ccn(C)n1)c1cccc(C(=O)NO)c1 (centres unmarked) [Compound I-81, N-(1-{3-[(hydroxyamino)carbonyl]phenyl}ethyl)-1-methyl-1H-pyrazole-3-carboxamide]

Same assay, conditions: bin: greater than 1 μM

IC50 [nM] | SMILES
> 1000 | Cn1c(C(=O)NC(c2ccc(C(=O)NO)cc2)C(C)(C)C)cc2oc(-c3ccccc3)cc21 (centres unmarked) [Compound I-392, N-(1-{4-[(hydroxyamino)carbonyl]phenyl}-2,2-dimethylpropyl)-4-methyl-2-phenyl-4H-furo[3,2-b]pyrrole-5-carboxamide]
> 1000 | CC(C)C(=O)NC(C)c1ccc(C(=O)NO)cc1 (centres unmarked) [Compound I-36, N-hydroxy-4-[1-(isobutyrylamino)ethyl]benzamide]
> 1000 | CC(NS(=O)(=O)c1ccc(C(F)(F)F)cc1)c1ccc(C(=O)NO)cc1 (centres unmarked) [Compound I-488, N-hydroxy-4-[1-({[4-(trifluoromethyl)phenyl]sulfonyl}amino)ethyl]benzamide]
> 1000 | CC(C)C(NC(=O)c1cc(C(F)(F)F)ccc1C(F)(F)F)c1ccc(C(=O)NO)cc1 (centres unmarked) [Compound I-155, N-(1-{4-[(hydroxyamino)carbonyl]phenyl}-2-methylpropyl)-2,5-bis(trifluoromethyl)benzamide]
> 1000 | C[C@@H](NC(=O)C12CC3CC(CC(C3)C1)C2)c1cccc(C(=O)NO)c1 [Compound I-312, N-((1R)-1-{3-[(hydroxyamino)carbonyl]phenyl}ethyl)adamantane-1-carboxamide]

Same assay, conditions: purified human HDAC6, substrate Ac-Arg-Gly-Lys(Ac)-AMC, 1 hour at 30° C.; reported as bins

SMILES | IC50 [nM]
CC(NC(=O)Nc1c(F)cccc1F)c1ccc(C(=O)NO)cc1 (centres unmarked) [Compound I-261, 4-[1-({[(2,6-difluorophenyl)amino]carbonyl}amino)ethyl]-N-hydroxybenzamide] | < 100
O=C(N[C@H](c1ccc(C(=O)NO)cc1)C(F)(F)F)NC12CC3CC(CC(C3)C1)C2 [Compound I-105, 4-((1R)-1-{[(1-adamantylamino)carbonyl]amino}-2,2,2-trifluoroethyl)-N-hydroxybenzamide] | 100 to 500
CC(NS(=O)(=O)c1ccc(C(F)(F)F)cc1)c1ccc(C(=O)NO)cc1 (centres unmarked) [Compound I-488, N-hydroxy-4-[1-({[4-(trifluoromethyl)phenyl]sulfonyl}amino)ethyl]benzamide] | 100 to 500
O=C(NO)c1ccc([C@H](NC(=O)C23CC4CC(CC(C4)C2)C3)c2ccccc2)cc1 [Compound I-336, N-[(R)-{4-[(hydroxyamino)carbonyl]phenyl}(phenyl)methyl]adamantane-1-carboxamide] | 100 to 500

Next, values leading:

IC50 [nM] | SMILES
< 100 | O=C(NO)c1ccc([C@H](NC(=O)c2ccc(-c3ccccc3)cc2)C(F)(F)F)cc1 [Compound I-296, N-((1S)-2,2,2-trifluoro-1-{4-[(hydroxyamino)carbonyl]phenyl}ethyl)biphenyl-4-carboxamide]
< 100 | CC(C)[C@@H](NC(=O)c1ccc(-c2ccccc2)cc1)c1ccc(C(=O)NO)cc1 [Compound I-341, N-((1R)-1-{4-[(hydroxyamino)carbonyl]phenyl}-2-methylpropyl)biphenyl-4-carboxamide]
< 100 | CC(C)[C@@H](NC(=O)c1cccn1C)c1ccc(C(=O)NO)cc1 [Compound I-65, N-((1R)-1-{4-[(hydroxyamino)carbonyl]phenyl}-2-methylpropyl)-1-methyl-1H-pyrrole-2-carboxamide]
< 100 | C[C@H](NC(=O)N[C@H](C)c1ccc(C(=O)NO)cc1)c1ccccc1 [Compound I-513, N-hydroxy-4-[(1R)-1-({[(1S)-1-phenylethyl]carbamoyl}amino)ethyl]benzamide]
100 to 500 | CC(C)(C)C(NC(=O)c1cscn1)c1ccc(C(=O)NO)cc1 (centres unmarked) [Compound I-123, N-(1-{4-[(hydroxyamino)carbonyl]phenyl}-2,2-dimethylpropyl)-1,3-thiazole-4-carboxamide]
< 100 | CC(C)[C@@H](NC(=O)Nc1ccc2c(c1)CCO2)c1ccc(C(=O)NO)cc1 [Compound I-526, 4-((1R)-1-{[(2,3-dihydro-1-benzofuran-5-ylamino)carbonyl]amino}-2-methylpropyl)-N-hydroxybenzamide]
< 100 | CC(C)C(NC(=O)c1ccc(-c2ccc(F)cc2)cc1)c1ccc(C(=O)NO)cc1 (centres unmarked) [Compound I-143, 4′-fluoro-N-(1-{4-[(hydroxyamino)carbonyl]phenyl}-2-methylpropyl)biphenyl-4-carboxamide]
